The values below are quoted from earlier work in publication PMC3759941 (International Journal of Molecular Sciences, 2013).

The series concerns EeAChE.

Read-outs that look alike come from different tables or passages of the source.

As usually defined, the IC50 is the concentration that gives 50% inhibition. For `C[n+]1ccccc1/C=N/O` [Compound 1, 2-pyridine aldoxime methiodide], for the setting “Table 1, mono-pyridinium reactivators”, the IC50 is 54.9 mM.
For the molecule `ON=Cc1cc[n+](CCC[n+]2ccc(/C=N/O)cc2)cc1` [Compound 6, trimedoxime], the IC50 by setting is: (Table 2, bis-pyridinium reactivators) 51.9 mM; (Table 3) 51.9 mM.
Take `ON=Cc1cc[n+](C/C=C/C[n+]2ccc(C=NO)cc2)cc1` [Compound 23]: the IC50 (Table 3) was 36.7 mM.
